Measured values as given in patent publication US12012410B2, “Substituted pyrazolo[1,5-a]pyrazines for spinal muscular atrophy” (REBORNA BIOSCIENCES, INC., priority 2018, dated 2024).

Tested on: FL-SMN mRNA (SMN transcript containing exons 7 and 8)
Experiment: Live-cell assay to measure changes in FL-SMN mRNA levels (qPCR) after exposure to the compounds
Type: cell-based, human
Conditions: fibroblasts derived from patients SMA (GM03813); 24 hours incubation
Experimental: In this example, each test compound was administered to cultured cells, and changes in the expression levels of mRNA transcripts of SMN, i.e., FL-SMN containing exons 7 and 8 and Delta7 with exon 7 skipped, were examined using PCR.
Fibroblasts derived from patients SMA (GM03813) (Coriell Cell Repositories) were cultured with passages using DMEM (High Glucose) (Life Technologies) supplemented with 10% FBS (Life Technologies). Cells were seeded in tissue-culture-treated 96-well plates (Corning) at 1.5 or 0.5×10^4 cells/well in 100 μL of medium. The cells were incubated in 5% CO2 for 6 hours, and the medium was replaced with 100 μL of medium (with DMSO, 0.1% final concentration) containing each of the compounds given in the Examples. After additional incubation for 24 hours under the same conditions, the cells were washed once with D-PBS(—) (Wako) and 25 μL/well of the lysis solution (with gDNA Remove) contained in the SuperPrep (registered trademark) Cell Lysis & RT Kit for qPCR (Toyobo life science) was added according to the manufacturer's instructions so that the cells were lysed and the genomic DNA was degraded. Furthermore, 5 μL of the STOP solution (with RNase Inhibitor) contained in the kit was added to provide RNA-containing solutions. Six microliters of the RNA-containing solutions were each mixed with 14 μL of a reverse transcription solution containing transcriptase together with dNTP, random primers and an oligodT primer. Reverse transcription was performed at 37° C. (15 min), 50° C. (5 min), and 98° C. (5 min), to give total cDNAs. The total cDNAs were diluted 30-fold with Ultra-pure water (Invitrogen) to measure the expression levels of FL-SMN, delta7, and GAPDH. For quantitative PCR (qPCR), a PCR solution was prepared according to the instructions of the manufacturer of the THUNDERBIRD (registered trademark) Probe qPCR Mix (Toyobo life science). Five microliters of the diluted total cDNA solutions and oligo DNA standard solutions, each containing either 001-Standard FL-SMN (SEQ ID NO. 1) or 002-Standard delta7 (SEQ ID NO. 2), were each mixed with 10 μL of each of the PCR solutions containing a qPCR probe, primers, and PCR enzyme. […] The oligoDNA standard solutions were prepared as those containing either of 5×10^8, 5×10^7, 5×10^6, 5×10^5, 5×10^4, 5×10^3, 5×10^2, 5×10, 5, or 0 copies. For the oligo DNA standards, primers, and probes, oligonucleotides synthesized by Integrated DNA Technologies, Inc. (IDT) were used. […] FIGS. 3B and 3D show their detection mechanisms. The final concentrations of the primers and probes added were 0.4 μM and 0.15 μM, respectively. The qPCR was performed using the following conditions on a ViiA7 instrument (Applied Biosystems): first stage: 95° C. (1 min)→second stage: 95° C. (15 sec)→third stage: 60° C. (1 min)→40 repeated cycles of the second and third stages. The GAPDH mRNA was used as the internal control, and the commercially available 20×gene expression PCR assay (Life Technologies, 4326317E, Hs99999905_ml) and Standard GAPDH (SEQ ID NO. 7) (see FIG. 1) was used to determine the number of copies of this gene. The measurement values obtained for the samples to be measured were standardized against the respective value obtained for GAPDH.
Using the above-mentioned assays, the activities of the compounds of the Examples were evaluated. Specifically, the percentages of the FL-SMN and delta7 values obtained using DMSO without the compounds and standardized against GAPDH were set as 100% and those of the FL-SMN and delta7 values obtained at the time of administration of the compounds and standardized against GAPDH were calculated. […]

**Q.** For `Cc1nc2c(F)cc(-c3cc(F)c4nc(C5CCN(C)CC5)[nH]c(=O)c4c3)cc2o1` [Example 24, 8-Fluoro-6-(4-fluoro-2-methyl-1,3-benzoxazole 6-yl)-2-(1-methylpiperidin-4-yl) quinazoline 4-(3H)-one], which “Percentage of increase (FL-SMN mRNA standardized against GAPDH, DMSO control set as 100%)” value is on record?
**A.** Its value is “**** (equal to or higher than 180%)”.

**Q.** `CCN1CCC(c2nc3ccc(-c4cc(F)c5nc(C)oc5c4)cc3c(=O)[nH]2)CC1` [Example 25, 2-(1-ethylpiperidin-4-yl)-6-(4-fluoro-2-methylu 1,3-benzoxazole-6-yl) kinazoline-4 (3H)-one] was tested. Which “Percentage of increase (FL-SMN mRNA standardized against GAPDH, DMSO control set as 100%)” value did it give?
**A.** The value was “**** (equal to or higher than 180%)”.

**Q.** For `Cc1cn2cc(-c3ccc4c(=O)n(C5CCN(C)CC5)cnc4c3)ccc2n1` [Example 26, 7-(2-methylimidazo[1,2-a]pyridine-6-yl)-3-(1-methylpiperidin-4-yl) kinazoline-4 (3H)-one], which “Percentage of increase (FL-SMN mRNA standardized against GAPDH, DMSO control set as 100%)” value is on record?
**A.** The value was “**** (equal to or higher than 180%)”.

**Q.** How did the “Percentage of increase (FL-SMN mRNA standardized against GAPDH, DMSO control set as 100%)” value turn out when `Cc1nc2c(F)cc(-c3ccc4nc(C5CCN(C6CC6)CC5)[nH]c(=O)c4c3)cc2o1` [Example 27, 2-(1-cyclopropylpiperidin-4-yl)-6-(4-fluoro-2-methyl-1,3-benzoxazol-6-yl)quinazolin-4(3H)-one] was run?
**A.** Its value is “**** (equal to or higher than 180%)”.

**Q.** How did the “Percentage of increase (FL-SMN mRNA standardized against GAPDH, DMSO control set as 100%)” value turn out when `Cc1nc2c(F)cc(-c3cc(F)c4nc(C5CCN(C6CC6)CC5)[nH]c(=O)c4c3)cc2o1` [Example 28, 2-(1-cyclopropylpiperidin-4-yl)-8-fluoro-6-(4-fluoro-2-methyl-1,3-benzoxazol-6-yl)quinazolin-4(3H)-one] was run?
**A.** The value was “**** (equal to or higher than 180%)”.

**Q.** For `Cc1nc2c(F)cc(-c3ccc4c(=O)n(C5CCN(C)CC5)cnc4c3)cc2o1` [Example 29, 7-(4-fluoro-2-methyl-1,3-benzoxazol-6-yl)-3-(1-methylpiperidin-4-yl)quinazolin-4(3H)-one], which “Percentage of increase (FL-SMN mRNA standardized against GAPDH, DMSO control set as 100%)” value is on record?
**A.** Its value is “**** (equal to or higher than 180%)”.

**Q.** Which “Percentage of increase (FL-SMN mRNA standardized against GAPDH, DMSO control set as 100%)” value does the source give for `Cc1nc2ccc(-c3cc(F)c4nc(C5CCN(C)CC5)[nH]c(=O)c4c3)cc2o1` [Example 30, 8-fluoro-6-(2-methyl-1,3-benzoxazol-6-yl)-2-(1-methylpiperidin-4-yl)quinazolin-4(3H)-one] here?
**A.** Its value is “**** (equal to or higher than 180%)”.

**Q.** `Cc1nc2ccc(-c3cc(F)c4nc(C5CCN(C6CC6)CC5)[nH]c(=O)c4c3)cc2o1` [Example 31, 2-(1-cyclopropylpiperidin-4-yl)-8-fluoro-6-(2-methyl-1,3-benzoxazol-6-yl)quinazolin-4(3H)-one] was tested. Which “Percentage of increase (FL-SMN mRNA standardized against GAPDH, DMSO control set as 100%)” value did it give?
**A.** Its value is “**** (equal to or higher than 180%)”.

**Q.** For `Cc1cn2cc(-c3ccc4nc(C5CCN(C6CC6)CC5)[nH]c(=O)c4c3)cc2cn1` [Example 32, 2-(1-cyclopropylpiperidin-4-yl)-6-(3-methylpyrrolo[1,2-a]pyrazin-7-yl)quinazolin-4(3H)-one], which “Percentage of increase (FL-SMN mRNA standardized against GAPDH, DMSO control set as 100%)” value is on record?
**A.** The value was “**** (equal to or higher than 180%)”.

**Q.** Which “Percentage of increase (FL-SMN mRNA standardized against GAPDH, DMSO control set as 100%)” value does the source give for `Cc1cn2cc(-c3cc(F)c4nc(C5CCN(C6CC6)CC5)[nH]c(=O)c4c3)cc2cn1` [Example 33, 2-(1-cyclopropylpiperidin-4-yl)-8-fluoro-6-(3-methylpyrrolo[1,2-a]pyrazin-7-yl)quinazolin-4(3H)-one acetate] here?
**A.** Its value is “*** (equal to or higher than 150% but lower than 180%)”.

**Q.** Which “Percentage of increase (FL-SMN mRNA standardized against GAPDH, DMSO control set as 100%)” value does the source give for `Cc1nc2c(F)cc(-c3ccc4c(=O)n(C5CCN(C6CC6)CC5)cnc4c3)cc2o1` [Example 34, 3-(1-cyclopropylpiperidin-4-yl)-7-(4-fluoro-2-methyl-1,3-benzoxazol-6-yl)quinazolin-4(3H)-one] here?
**A.** Its value is “**** (equal to or higher than 180%)”.

**Q.** `COc1ccc(-c2cc(F)c3nc(C4CCN(C5CC5)CC4)[nH]c(=O)c3c2)cc1F` [Example 35, 2-(1-cyclopropylpiperidin-4-yl)-8-fluoro-6-(3-fluoro-4-methoxyphenyl) quinazolin-4(3H)-one] was tested. Which “Percentage of increase (FL-SMN mRNA standardized against GAPDH, DMSO control set as 100%)” value did it give?
**A.** The value was “**** (equal to or higher than 180%)”.

**Q.** With `Cc1cn2nc(-c3nc4ccc(N5CCN(C6CC6)CC5)cc4c(=O)[nH]3)cc2c(C)n1` [Example 36, 6-(4-cyclopropylpiperazin-1-yl)-2-(4,6-dimethylpyrazolo[1,5-a]pyrazin-2-yl)quinazolin-4(3H)-one] as the compound, how does the “Percentage of increase (FL-SMN mRNA standardized against GAPDH, DMSO control set as 100%)” value read?
**A.** The value was “**** (equal to or higher than 180%)”.

**Q.** How did the “Percentage of increase (FL-SMN mRNA standardized against GAPDH, DMSO control set as 100%)” value turn out when `Cc1cn2cc(-c3ccc4nc(C5(F)CCN(C)CC5)[nH]c(=O)c4c3)ccc2n1` [Example 37, 2-(4-fluoro-1-methylpiperidin-4-yl)-6-(2-methylimidazo[1,2-a]pyridin-6-yl)quinazolin-4(3H)-one] was run?
**A.** The value was “*** (equal to or higher than 150% but lower than 180%)”.

**Q.** Which “Percentage of increase (FL-SMN mRNA standardized against GAPDH, DMSO control set as 100%)” value does the source give for `Cc1nc2c(F)cc(-c3ccc4nc(C5CCN(C(C)C)CC5)[nH]c(=O)c4c3)cc2o1` [Example 38, 6-(4-Fluoro-2-methyl-1,3-benzoxazol-6-yl)-2-(1-isopropylpiperidin-4-yl)quinazolin-4(3H)-one] here?
**A.** The value was “**** (equal to or higher than 180%)”.

**Q.** With `Cc1cn2cc(-c3ccc4c(=O)n(C5CCN(C6CC6)CC5)cnc4c3)cc(F)c2n1` [Example 39, 3-(1-cyclopropylpiperidin-4-yl)-7-(8-fluoro-2-methylimidazo[1,2-a]pyridin-6-yl)quinazolin-4(3H)-one] as the compound, how does the “Percentage of increase (FL-SMN mRNA standardized against GAPDH, DMSO control set as 100%)” value read?
**A.** The value was “*** (equal to or higher than 150% but lower than 180%)”.

**Q.** With `Cc1cn2cc(-c3cc(C)c4nc(C5CCN(C6CC6)CC5)[nH]c(=O)c4c3)cc(F)c2n1` [Example 40, 2-(1-cyclopropylpiperidin-4-yl)-6-(8-fluoro-2-methylimidazo[1,2-a]pyridin-6-yl)-8-methylquinazolin-4(3H)-one] as the compound, how does the “Percentage of increase (FL-SMN mRNA standardized against GAPDH, DMSO control set as 100%)” value read?
**A.** Its value is “**** (equal to or higher than 180%)”.

**Q.** With `Cc1nc2ccc(-c3nc4cc(C)c(C5CCN(C)CC5)cc4c(=O)[nH]3)cc2o1` [Example 41, 7-methyl-2-(2-methyl-1,3-benzoxazol-6-yl)-6-(1-methylpiperidin-4-yl)quinazolin-4(3H)-one] as the compound, how does the “Percentage of increase (FL-SMN mRNA standardized against GAPDH, DMSO control set as 100%)” value read?
**A.** Its value is “* (equal to or higher than 100% but lower than 120%)”.

**Q.** Which “Percentage of increase (FL-SMN mRNA standardized against GAPDH, DMSO control set as 100%)” value does the source give for `CN1CCN(c2ccc3nc(C4=NOC5(CCN(C)CC5)C4)[nH]c(=O)c3c2)CC1` [Example 42, 2-(8-methyl-1-oxa-2,8-diazaspiro[4.5]dec-2-en-3-yl)-6-(4-methylpiperazin-1-yl)quinazolin-4(3H)-one] here?
**A.** Its value is “* (equal to or higher than 100% but lower than 120%)”.

**Q.** `CN1CCC(c2ccc3nc(C4=NOC5(CCN(C)CC5)C4)[nH]c(=O)c3c2)CC1` [Example 43, 2-(8-methyl-1-oxa-2,8-diazaspiro[4.5]dec-2-en-3-yl)-6-(1-methylpiperidin-4-yl)quinazolin-4(3H)-one] was tested. Which “Percentage of increase (FL-SMN mRNA standardized against GAPDH, DMSO control set as 100%)” value did it give?
**A.** The value was “* (equal to or higher than 100% but lower than 120%)”.

**Q.** `Cc1ccc(-c2nc3ccc(C4CCN(C)CC4)cc3c(=O)[nH]2)c(=O)n1C` [Example 44, 2-(1,6-dimethyl-2-oxo-1,2-dihydropyridin-3-yl)-6-(1-methylpiperidin-4-yl)quinazolin-4(3H)-one] was tested. Which “Percentage of increase (FL-SMN mRNA standardized against GAPDH, DMSO control set as 100%)” value did it give?
**A.** Its value is “** (equal to or higher than 120% but lower than 150%)”.

**Q.** Which “Percentage of increase (FL-SMN mRNA standardized against GAPDH, DMSO control set as 100%)” value does the source give for `COc1cccc(-c2nc3ccc(C4CCN(C)CC4)cc3c(=O)[nH]2)n1` [Example 45, 2-(6-methoxypyridin-2-yl)-6-(1-methylpiperidin-4-yl)quinazolin-4(3H)-one] here?
**A.** Its value is “** (equal to or higher than 120% but lower than 150%)”.
